ED50 data for 3 compounds are collected here from US5075304A, “Imidazoquinoxaline compounds and their preparation and use” (Novo Nordisk A/S, priority 1988, dated 1991).

The subject of this test is benzodiazepine receptors. The experiment in a line: in vivo displacement of 3H-flunitrazepam binding from brain benzodiazepine receptors. The arrangement: species or system mice. The following applies: dose reducing specific 3H-flunitrazepam binding in living mouse brain to 50% of control; test substance intraperitoneally 15 min before 3H-FNM i.v. The source says:
The pharmaceutical properties of the compounds of the invention can be illustrated by determining their capability for displacing radioactive labelled flunitrazepam from benzodiazepine receptors.
The displacement activity of the compounds of the invention may be found by determining the ED50 value. The ED50 value represents the dose (mg/kg) of a test substance which causes the specific binding of flunitrazepam to benzodiazepine receptors in a living brain to be reduced to 50% of the control value.
Such an in vivo test is carried out as follows:
Principle. Twenty minutes after a dose of ^3 H-flunitrazepam (^3 H-FNM) (200 μCi/kg, i.v.) the amount of specific ^3 H-FNM binding to brain benzodiazepine receptors has reached its maximal value.
Test procedure. Suspensions of test substances (2 mg/ml) are prepared in 5% Duphasol-X (TM Duphar, castor oil-ethylene oxide derivative for emulsifying and solubilizing oil and other water-insoluble substances) by sonification for 10 min using a Branson B15 microtip ultrasonifier (setting 7). Groups of three mice (female, NMR, 18-22 grams) are injected with the test substance at 100 mg/kg intraperitoneally. Fifteen minutes after test substance administration the mice are challenged with 4 μCi intravenously of ^3 H-FNM (70-90 Ci/mole) in 200 μl physiological saline. Twenty minutes after ^3 H-FNM administration mice are sacrificed by decapitation, the forebrains rapidly excised (within 30 sec) and homogenized in 12 ml of icecold 25 mM KH2 PO4, pH 7.1, using an Ultra-Turrax homogenizer fitted with an N 10 shaft. […] The amounts of radioactivity on the filters are determined by conventional scintillation counting. […]
Results. The ED50 value is determined from dose response curves. If only one dose of test substance is administered the ED50 value is calculated as follows, provided that the inhibition of specific binding is within the range of 25-75%: [formula] where Co is specific binding in controls and Cx is specific binding in mice treated with test substance.
A general note: In a radioligand displacement assay an active substance lowers the binding of a labelled ligand.

By ED50 is commonly meant the dose that gives a 50% effect, or the effect in half of the subjects. Consider `Cn1c(=O)c2c(-c3nc(C4CC4)no3)ncn2c2cccc(C(F)(F)F)c21` [Compound 6, 3-(3-cyclopropyl-1,2,4-oxadiazol-5-yl)-4,5-dihydro-5-methyl-4-oxo-6-trifluoromethylimidazo[1,5-a]quinoxaline], for which the ED50 was found to be 0.21 mg/kg. For `Cn1c(=O)c2c(-c3noc(C4CC4)n3)ncn2c2cccc(C(F)(F)F)c21` [Compound 2, 3-(5-cyclopropyl-1,2,4-oxadiazol-3-yl)-4,5-dihydro-5-methyl-4-oxo-6-trifluoromethyl-imidazo[1,5-a]quinoxaline] the value was 0.09 mg/kg; for `O=c1c2c(-c3noc(C4CC4)n3)ncn2c2ccccc2n1Cc1ccccc1` [Compound 1, 5-benzyl-3-(5-cyclopropyl-1,2,4-oxadiazol-3-yl)-4,5-dihydro-4-oxo-imidazo[1,5-a]quinoxaline], 1.2 mg/kg.
